Reference: patent publication EP4703358A1, “BENZO SIX-MEMBERED HETEROCYCLIC GSPT1 PROTEIN DEGRADATION AGENT AND USE THEREOF” (China Pharmaceutical University, priority 2023, dated 2024)

Tests used:
[1] = Metabolic stability in in vitro rat liver microsomes; settings: for half-life / microsomal CLint: rat
Experimental: 10 mM stock solutions of the test compounds in DMSO were prepared, diluted with acetonitrile and then with PBS, and vortexed, with the DMSO content controlled at 0.1%. The dilute working solutions (10 µL) were incubated with 65 µL of a liver microsome system (30 µL of 100 mM PBS, 25 µL of 20 mM MgCl2, and 10 µL of 5 mg/mL RLMs) and preheated at 37 °C for 5 min. 25 µL of 4 mM NADPH was added to start a reaction. Samples were taken at different time points (0 min, 5 min, 15 min, 30 min, 60 min, and 120 min), and an acetonitrile solution containing an internal standard was added to stop the reaction. After vortexing and centrifugation, the supernatants were collected and analyzed by LC-MS/MS, and the half-lives and clearance rates were calculated.

[2] = test system: human leukemia cells MV411; test: In vivo pharmacodynamic study in MV411 acute myeloid leukemia xenograft mouse model; parameters: species or system BABL/c Nude mouse; settings: for weight loss in mice: once daily by oral gavage
Experimental: The human leukemia cells MV411 (Cell Bank, Chinese Academy of Sciences) used in this experiment were cultured in an IMDM culture medium supplemented with 10% FBS in an incubator containing CO2 at 37 °C. Before the cells were continuously sub-cultured to the tenth generation, MV411 cells in the logarithmic growth phase were used, and the cell concentration was adjusted to 1 × 10^8 cells/mL with a serum-free culture medium. Each BABL/c Nude mouse (Jiangsu GemPharmatech Co., Ltd., female, 4-6 weeks old, 14-16 g) was inoculated with 100 µL of the cell suspension by subcutaneous injection on the right dorsal side (near the axilla) under sterile conditions. When the mean tumor volume of the tumor-bearing mice reached approximately 100 mm^3, the mice were randomly divided into groups, with the tumor volume in each group being roughly the same. The day of grouping and administration was defined as day 0. The animals in each treatment group were given a compound once daily by oral gavage at 15 mg/kg, 30 mg/kg, or 60 mg/kg. The body weight and tumor volume of the animals were measured every other day.
Experimental indicator: The anti-tumor efficacy of the compounds was evaluated using the relative tumor growth inhibition rate (TGI). Tumor weight TGI (%) = {1 - [(final average tumor weight of experimental group)/(final average tumor weight of control group of tumor-bearing mice without administration)]} × 100%. Tumor volume TGI (%) = [1 - relative tumor volume of experimental group/relative tumor volume of control group of tumor-bearing mice without administration] × 100%.

[3] = In vivo pharmacokinetic study in rats; settings: rat; for AUC(0-inf) / AUC(0-t) / C0 / Vd / clearance / half-life / Cmax / Tmax: male, SD, plasma; for F: PO 10mg/kg; for exposure level relative to CC-90009: administered orally
Experimental: Sample collection and preparation: After SPF SD rats (male, 210-230 g, 42-48 days, RILD Liver) in a good growth state were dosed intravenously at 2 mg/kg and orally at 10 mg/kg, blood samples were collected via the orbit at different blood collection time points and transferred to centrifuge tubes containing an anticoagulant; the intravenous blood collection time points were 0.08 hours, 0.25 hours, 0.5 hours, 1 hour, 2 hours, 4 hours, 6 hours, 8 hours, and 24 hours, and the oral blood collection time points were 0.25 hours, 0.5 hours, 1 hour, 2 hours, 4 hours, 6 hours, 8 hours, and 24 hours. The blood samples were immediately centrifuged at 4 °C and 8000 rpm for 10 minutes, and the plasma was collected and stored in an ultra-low-temperature freezer at -80 °C until it was analyzed by LC-MS/MS. Pharmacokinetic data analysis: Pharmacokinetic parameters of the compounds were calculated using pharmacokinetic software in a non-compartmental model. The peak plasma concentration (Cmax) and the time to reach the peak plasma concentration (Tmax) were taken as observation values. Parameters such as the half-life T1/2, the areas under the plasma concentration-time curve AUClast and AUCinf, the apparent volume of distribution Vss, and the clearance rate CL were determined through regression analysis of the linear terminal portion of the logarithmic plasma concentration-time curve and the linear trapezoidal rule.

[4] = test system: KG-1 cells; test: Antiproliferative activity against KG-1 cells (CCK8); type: cell-based; settings: Homo sapiens, 72 hours
Experimental: KG-1 cells in the logarithmic growth phase were diluted in a culture medium (RPMI + 10% FBS) and plated onto 96-well plates at 5000 cells/well, and the plates were incubated in an incubator at 37 °C with 5% CO2 for 24 hours. 10 mM stock solutions of the test compounds of the present disclosure in DMSO were prepared and diluted with the culture medium to set 9 concentration gradients. Three replicate wells were set for each concentration. After compound addition, the plates were incubated in an incubator at 37 °C with 5% CO2 for 72 hours. The cell proliferation was assessed using the CCK8 method. The cell growth inhibition IC50 values of the compounds were determined using an enzyme labeling method. The IC50 values were calculated using GraphPad Prism 7 software.
The antiproliferative activity of the compounds against KG-1 cells is shown in Table 2, where A represents IC50 < 1 nM, B represents 1 ≤ IC50 < 10 nM, C represents 10 nM ≤ IC50 < 100 nM, D represents 100 nM ≤ IC50 < 1000 nM, and E represents IC50 ≥ 1000 nM. Table 2. The antiproliferative activity of compounds against KG-1 cells

[5] = biological target: T1, GSPT1 protein (Homo sapiens, UniProt P15170+Q96SW2); test: Degradation of GSPT1 in KG-1 cells (Western blot); type: cell-based; parameters: percent GSPT1 degradation: dose or concentration left out as unconfirmed; settings: for percent GSPT1 degradation at 0.2 µM: compound concentration 200 nM
T1 construct: host or cells: KG-1 cells
T1 sequence (P15170 whole entry): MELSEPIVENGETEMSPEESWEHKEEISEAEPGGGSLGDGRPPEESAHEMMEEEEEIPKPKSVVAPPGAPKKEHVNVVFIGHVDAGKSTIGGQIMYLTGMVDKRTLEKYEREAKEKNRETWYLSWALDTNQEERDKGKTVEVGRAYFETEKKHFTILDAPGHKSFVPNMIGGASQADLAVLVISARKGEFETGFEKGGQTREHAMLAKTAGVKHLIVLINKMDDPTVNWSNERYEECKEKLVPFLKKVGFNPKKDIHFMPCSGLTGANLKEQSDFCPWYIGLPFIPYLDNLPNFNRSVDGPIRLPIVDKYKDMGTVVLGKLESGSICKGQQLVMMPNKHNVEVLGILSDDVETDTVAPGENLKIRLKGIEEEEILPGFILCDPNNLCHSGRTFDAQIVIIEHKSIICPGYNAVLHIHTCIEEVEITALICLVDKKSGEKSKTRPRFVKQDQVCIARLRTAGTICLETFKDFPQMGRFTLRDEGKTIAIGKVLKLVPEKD
T1 sequence (Q96SW2 whole entry): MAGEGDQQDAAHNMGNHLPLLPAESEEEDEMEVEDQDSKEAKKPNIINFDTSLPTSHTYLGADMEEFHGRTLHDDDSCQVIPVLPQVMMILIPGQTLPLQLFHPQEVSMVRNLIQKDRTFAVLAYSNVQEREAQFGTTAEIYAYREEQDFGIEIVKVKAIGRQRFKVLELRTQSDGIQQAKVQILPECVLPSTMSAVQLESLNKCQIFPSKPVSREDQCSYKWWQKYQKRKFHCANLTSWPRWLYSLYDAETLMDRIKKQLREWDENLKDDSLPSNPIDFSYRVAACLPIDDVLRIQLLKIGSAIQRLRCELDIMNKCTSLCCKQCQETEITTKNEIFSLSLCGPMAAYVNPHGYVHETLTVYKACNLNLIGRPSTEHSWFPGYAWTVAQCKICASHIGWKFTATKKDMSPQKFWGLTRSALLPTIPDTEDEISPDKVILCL
T1 sequence (Q16531 whole entry partner): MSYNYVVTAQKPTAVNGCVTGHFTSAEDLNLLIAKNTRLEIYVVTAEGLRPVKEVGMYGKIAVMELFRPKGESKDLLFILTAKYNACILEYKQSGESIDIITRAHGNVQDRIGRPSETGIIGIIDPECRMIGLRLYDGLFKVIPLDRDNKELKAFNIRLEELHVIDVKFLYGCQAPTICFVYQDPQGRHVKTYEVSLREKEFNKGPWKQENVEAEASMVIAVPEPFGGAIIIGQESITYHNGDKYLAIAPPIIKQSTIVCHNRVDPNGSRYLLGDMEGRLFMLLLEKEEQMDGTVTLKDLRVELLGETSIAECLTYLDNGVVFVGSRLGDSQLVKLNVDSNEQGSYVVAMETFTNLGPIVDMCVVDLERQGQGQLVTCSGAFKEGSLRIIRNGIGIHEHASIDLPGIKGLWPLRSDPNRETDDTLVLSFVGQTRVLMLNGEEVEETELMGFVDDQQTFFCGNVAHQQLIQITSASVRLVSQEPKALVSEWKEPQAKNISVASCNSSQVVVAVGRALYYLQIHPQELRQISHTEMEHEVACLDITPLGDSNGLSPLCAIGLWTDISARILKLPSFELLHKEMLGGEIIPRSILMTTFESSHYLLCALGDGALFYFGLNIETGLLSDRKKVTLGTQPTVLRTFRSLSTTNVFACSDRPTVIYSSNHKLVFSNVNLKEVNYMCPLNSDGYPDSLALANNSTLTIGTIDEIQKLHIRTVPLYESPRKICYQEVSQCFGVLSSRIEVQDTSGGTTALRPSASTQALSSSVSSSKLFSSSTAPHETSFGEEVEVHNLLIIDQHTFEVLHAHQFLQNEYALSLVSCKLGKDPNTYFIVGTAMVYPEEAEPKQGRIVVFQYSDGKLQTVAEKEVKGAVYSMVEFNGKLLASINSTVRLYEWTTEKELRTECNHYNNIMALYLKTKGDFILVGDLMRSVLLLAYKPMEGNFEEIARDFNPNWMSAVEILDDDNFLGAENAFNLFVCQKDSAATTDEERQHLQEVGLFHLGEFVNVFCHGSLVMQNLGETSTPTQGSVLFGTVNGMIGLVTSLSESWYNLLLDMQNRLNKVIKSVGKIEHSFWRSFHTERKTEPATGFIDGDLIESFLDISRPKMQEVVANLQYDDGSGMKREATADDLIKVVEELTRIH
Experimental: KG-1 cells (ATCC) were grown in an IMDM culture medium (containing 20% FBS). After centrifugation and counting, the cell concentration was adjusted. The cells were plated onto 6-well plates at 10^6 cells/well, with 1350 µL per well. 150 µL of DMSO and the test compounds of the present disclosure (compound concentration: 200 nM) were added. The plates were incubated in an incubator at 37 °C with 5% CO2 for 4 hours. The cells were centrifuged, and the culture medium was discarded. PBS was added to wash the cells and then discarded. Whole cell lysates were prepared using a protease inhibitor cocktail (100×, Fude Biological), a protein phosphatase inhibitor cocktail (100×, Fude Biological), SuperNuclease (Beyotime), and a high-intensity RIPA lysis buffer (Thermo Fisher) and placed on ice for 30 minutes. After centrifugation, the cell debris precipitates were discarded, and the whole cell lysate supernatants were collected and transferred to new centrifuge tubes. After a BCA protein assay, samples were prepared using a 5× loading buffer (Thermo Fisher). The samples were subjected to protein electrophoresis separation in a 4-20% precast gel (SDS-PAGE gel), transferred to a PVDF membrane, then blocked with 5% NFDM/TBST at room temperature for 1 hour, incubated overnight with primary antibodies at 4 °C, and incubated with a secondary antibody at room temperature for 2 hours the next day. Signals were detected using a MINICHEMITM imaging system.
Primary antibodies: • Anti-GSPT1: Abcam ab234433 • Anti-beta actin: Fude Biological FD0060
Secondary antibody: Anti-rabbit peroxidase-linked secondary antibody: Fude Biological FDG007
The degradation effects of the compounds on GSPT1 protein are shown in Table 1, where A represents a GSPT1 protein degradation percentage of no less than 80%, B represents a degradation percentage of less than 80% but no less than 50%, C represents a degradation percentage of less than 50% but no less than 25%, and D represents a degradation percentage of less than 25%. Table 1. The degradation of GSPT1 protein by compounds

[6] = test system: MV4-11; test: Antiproliferative activity against tumor cells (CCK8), MV4-11; type: cell-based; settings: Homo sapiens, MV4-11 cells, 72 hours
Experimental: (§1) U937, MOLM-13, and MV4-11 cells (ATCC) in the logarithmic growth phase were separately diluted in a culture medium and plated onto 96-well plates at 5000 cells/well, and the plates were incubated in an incubator at 37 °C with 5% CO2 for 24 hours. 10 mM stock solutions of the compounds in DMSO were prepared and diluted with the culture medium to set 9 concentration gradients. Three replicate wells were set for each concentration. After compound addition, the plates were incubated in an incubator at 37 °C with 5% CO2 for 72 hours. The cell proliferation was assessed using the CCK8 method. The cell growth inhibition IC50 values of the compounds were determined using an enzyme labeling method. The IC50 values were calculated using GraphPad Prism 7 software.
(§2) The antiproliferative activity of the compounds against the tumor cells is shown in Table 3, where A represents IC50 < 1 nM, B represents 1 ≤ IC50 < 10 nM, C represents 10 nM ≤ IC50 < 100 nM, D represents 100 nM ≤ IC50 < 1000 nM, and E represents IC50 ≥ 1000 nM. Table 3. The antiproliferative activity of compounds against tumor cells

[7] = test system: U937; test: Antiproliferative activity against tumor cells (CCK8), U937; type: cell-based; settings: Homo sapiens, U-937, 72 hours
Experimental: as §1, §2

[8] = test system: MOLM-13; test: Antiproliferative activity against tumor cells (CCK8), MOLM-13; type: cell-based; settings: Homo sapiens, MOLM-13 cells, 72 hours
Experimental: as §1, §2

| Compound | half-life [1] [h] | microsomal CLint [1] [µL/min/mg] | AUC(0-inf) ([3]; iv, 2 mg/kg) [ng·h/mL] | AUC(0-t) ([3]; iv, 2 mg/kg) [ng·h/mL] | C0 ([3]; iv, 2 mg/kg) [ng/mL] | Vd ([3]; iv, 2 mg/kg) [L/kg] | clearance ([3]; iv, 2 mg/kg) [mL/min/kg] | half-life ([3]; iv, 2 mg/kg) [h] | AUC(0-inf) ([3]; po, 10 mg/kg) [ng·h/mL] | AUC(0-t) ([3]; po, 10 mg/kg) [ng·h/mL] | Cmax ([3]; po, 10 mg/kg) [ng/mL] | Tmax ([3]; po, 10 mg/kg) [h] | half-life ([3]; po, 10 mg/kg) [h] | F [3] [%] | IC50 [4] [nM] | percent GSPT1 degradation at 0.2 µM ([5]; KG-1 cells, 4 hours) [%] | IC50 [6] [nM] | IC50 [7] [nM] | IC50 [8] [nM] | other results |
| --- | --- | --- | --- | --- | --- | --- | --- | --- | --- | --- | --- | --- | --- | --- | --- | --- | --- | --- | --- | --- |
| O=C1CCC(N2Cc3c(ccc(CNC(=O)C4=Cc5cc(OC(F)(F)F)ccc5OC4)c3F)C2=O)C(=O)N1 (stereo not shown) [Compound A-42, N-((2-(2,6-Dioxopiperidin-3-yl)-4-fluoro-1-oxoisoindolin-5-yl)methyl)-6-(trifluoromethoxy)-2H-chromene-3-carboxamide] | 3.11 | 7.43 | 17300 ± 1470 | 17200 ± 1500 | 32100 ± 1550 | 0.14 | 1.9 ± 0.1 | 1.37 ± 0.04 | 7190 | 8380 ± 1280 | 2810 ± 1530 | 0.66 ± 0.28 | 1.71 | 9.8±1.5 | 1 to 10 | > 80 |  |  |  | in vitro rat liver microsome metabolic half-life relative to CC-90009 ([1]; ratio to the clinical drug CC-90009): more than 2 times; tumor volume TGI ([2]; 60 mg/kg once daily by oral gavage): 100%; weight loss in mice [2]: no significant weight loss; exposure level relative to CC-90009 [3]: four times; plasma drug exposure level relative to CC-90009 ([3]; intravenous injection): fourteen times |
| O=C1CCC(N2Cc3cc(CNC(=O)C4CNc5ccccc5C4)ccc3C2=O)C(=O)N1 (stereo not shown) [Compound C-1, N-((2-(2,6-Dioxopiperidin-3-yl)-1-oxoisoindolin-5-yl)methyl)-1,2,3,4-tetrahydroquinoline-3-carboxamide] |  |  |  |  |  |  |  |  |  |  |  |  |  |  | 1 to 10 | > 80 | 10 to 100 | 10 to 100 | 10 to 100 |  |
| O=C1CCC(N2Cc3cc(CNC(=O)C4COc5ccc(OC(F)(F)F)cc5C4)ccc3C2=O)C(=O)N1 (stereo not shown) [Compound B-4, N-((2-(2,6-Dioxopiperidin-3-yl)-1-oxoisoindolin-5-yl)methyl)-6-(trifluoromethoxy)chromane-3-carboxamide] |  |  |  |  |  |  |  |  |  |  |  |  |  |  | < 1 | > 80 | < 1 | 1 to 10 | 1 to 10 |  |
| O=C1CCC(N2Cc3cc(CNC(=O)C4COc5ccccc5C4)ccc3C2=O)C(=O)N1 (stereo not shown) [Compound B-1, N-((2-(2,6-Dioxopiperidin-3-yl)-1-oxoisoindolin-5-yl)methyl)chromane-3-carboxamide] | 0.735 | 31.4 |  |  |  |  |  |  |  |  |  |  |  |  | 10 to 100 | > 80 | 1 to 10 | 1 to 10 | 1 to 10 |  |
| O=C1CCC(N2Cc3cc(CNC(=O)C4CCc5ccccc5C4)ccc3C2=O)C(=O)N1 [Compound D-1, N-((2-(2,6-Dioxopiperidin-3-yl)-1-oxoisoindolin-5-yl)methyl)-1,2,3,4-tetrahydronaphthalene-2-carboxamide] |  |  |  |  |  |  |  |  |  |  |  |  |  |  | ≥ 1000 | < 25 | ≥ 1000 | ≥ 1000 | ≥ 1000 |  |
| O=C1CCC(N2Cc3cc(CNC(=O)C4=Cc5cc(F)ccc5OC4)ccc3C2=O)C(=O)N1 (stereo not shown) [Compound A-3, N-((2-(2,6-Dioxopiperidin-3-yl)-1-oxoisoindolin-5-yl)methyl)-6-fluoro-2H-chromene-3-carboxamide] | 4.67 | 4.95 |  |  |  |  |  |  |  |  |  |  |  |  | 10 to 100 | > 80 | 10 to 100 | 10 to 100 | 10 to 100 |  |
| O=C1CCC(N2Cc3cc(CNC(=O)C4=Cc5ccccc5OC4)ccc3C2=O)C(=O)N1 (stereo not shown) [Compound A-1, N-((2-(2,6-Dioxopiperidin-3-yl)-1-oxoisoindolin-5-yl)methyl)-2H-chromene-3-carboxamide] | 6.17 | 3.75 | 1920 ± 267 | 1900 ± 270 | 3840 ± 226 | 0.92 ± 0.07 | 17.6 ± 2.6 | 1.38 ± 0.14 | 1850 ± 330 | 1810 ± 343 | 619 ± 42 | 0.75 ± 0.43 | 2.69 ± 1.13 | 19.3±3.4 | 10 to 100 | > 80 | 10 to 100 | 1 to 10 | 10 to 100 |  |
| O=C1CCC(N2Cc3cc(CNC(=O)C4=Cc5cc(OC(F)(F)F)ccc5OC4)ccc3C2=O)C(=O)N1 (stereo not shown) [Compound A-10, N-((2-(2,6-Dioxopiperidin-3-yl)-1-oxoisoindolin-5-yl)methyl)-6-trifluoromethoxy-2H-chromene-3-carboxamide] | 2.77 | 8.35 | 4350 ± 1200 | 4310 ± 1200 | 16700 ± 4330 | 0.42 ± 0.13 | 8.1 ± 2.5 | 1.53 ± 0.29 | 4980 ± 2740 | 4950 ± 2770 | 3460 ± 1540 | 0.33 ± 0.14 | 3.03 ± 0.63 | 22.9±12.6 | 10 to 100 |  | 10 to 100 | 1 to 10 | 1 to 10 | weight loss in mice [2]: no significant weight loss; exposure level relative to CC-90009 [3]: nearly three times; clearance rate relative to CC-90009 ([3]; intravenous injection): one third; plasma drug exposure level relative to CC-90009 ([3]; intravenous injection): nearly four times; percent GSPT1 degradation ([5]; KG-1, 4 h, read-out: GSPT1 degradation): > 80%; degradation of GSPT1 in KG-1 and MV4-11 cells ([5]; KG-1 and MV4-11 cells, FIGs. 1 and 2): concentration-dependent and time-dependent; percentage of degradation of GSPT1 protein ([5]; KG-1 cells, 200 nM, 4 hours): higher than 80% |
